Source: patent publication US7332501B2, “Indol-3-yl-carbonyl-spiro-piperidine derivatives as V1a receptor antagonists” (Hoffmann-La Roche Inc., priority 2005, dated 2008)

Molecular target: T1, human V1a receptor (Homo sapiens, UniProt P37288)
T1 construct: expressed in transfected cells; host or cells: HEK293 cells, transiently transfected; cell membranes
Assay: human V1a receptor binding (3H-Vasopressin SPA, HEK293 membranes)
Conditions: displacement of 4 nM 3H-Vasopressin, membranes of HEK293 cells transiently transfected with human V1a receptor; Ki from IC50 by Cheng-Prussoff
Procedure: The human V1a receptor was cloned by RT-PCR from total human liver RNA. The coding sequence was subcloned in an expression vector after sequencing to confirm the identity of the amplified sequence. […] Cell membranes were prepared from HEK293 cells transiently transfected with the expression vector and grown in 20 liter fermenters with the following protocol.
50 g cells are resuspended in 30 ml freshly prepared ice cold Lysis buffer (50 mM HEPES, 1 mM EDTA, 10 mM MgCl2 adjusted to pH=7.4+complete cocktail of protease inhibitor (Roche Diagnostics)). The cells are homogenized with Polytron for 1 min and sonicated on ice for 2×2 minutes at 80% intensity (Vibracell sonicator). The preparation is centrifuged 20 min at 500 g at 4° C., the pellet is discarded and the supernatant centrifuged 1 hour at 43,000 g at 4° C. (19,000 rpm). The pellet is resuspended in 12.5 ml Lysis buffer+12.5 ml Sucrose 20% and homogenized using a Polytron for 1-2 min. The protein concentration is determined by the Bradford method and aliquots are stored at −80° C. until use. For binding studies 60 mg Yttrium silicate SPA beads (Amersham) are mixed with an aliquot of membrane in binding buffer (50 mM Tris, 120 mM NaCl, 5 mM KCl, 2 mM CaCl2, 10 mM MgCl2) for 15 minutes with mixing. 50 ul of bead/membrane mixture is then added to each well of a 96 well plate, followed by 50 ul of 4 nM 3H-Vasopressin (American Radiolabeled Chemicals). For total binding measurement 100 ul of binding buffer are added to the respective wells, for non-specific binding 100 ul of […] cold vasopressin and for compound testing 100 ul of a serial dilution of each compound in 2% DMSO. The plate is incubated 1 h at room temperature, centrifuged 1 min at 1000 g and counted on a Packard Top-Count. Non-specific binding counts are subtracted from each well and data is normalized to the maximum specific binding set at 100%. To calculate an IC 50 the curve is fitted using a non-linear regression model (XLfit), and the Ki is calculated using the Cheng-Prussoff equation.

T1 sequence (P37288 whole entry): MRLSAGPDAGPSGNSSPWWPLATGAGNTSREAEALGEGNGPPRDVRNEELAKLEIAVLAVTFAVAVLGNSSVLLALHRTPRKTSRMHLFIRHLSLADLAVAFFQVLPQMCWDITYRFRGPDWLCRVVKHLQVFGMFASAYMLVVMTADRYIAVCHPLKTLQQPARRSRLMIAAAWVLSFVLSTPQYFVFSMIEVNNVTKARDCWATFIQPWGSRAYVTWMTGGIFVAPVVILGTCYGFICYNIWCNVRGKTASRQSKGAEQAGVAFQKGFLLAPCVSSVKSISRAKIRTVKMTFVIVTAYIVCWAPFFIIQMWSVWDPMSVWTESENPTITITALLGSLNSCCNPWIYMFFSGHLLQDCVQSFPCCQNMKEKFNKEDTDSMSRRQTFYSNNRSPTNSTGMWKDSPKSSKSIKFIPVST

Row | Ki | SMILES
1 | 2.9 nM | Cc1c(C(=O)N2CCC3(CC2)OCc2ccc(Cl)cc23)c2ccccc2n1Cc1ccccc1 [Example 40, 1′-[(1-benzyl-2-methyl-1H-indol-3-yl)carbonyl]-6-chloro-3H-spiro[2-benzofuran-1,4′-piperidine]]
2 | 11 nM | Cc1[nH]c2ccccc2c1C(=O)N1CCC2(CC1)OCc1ccccc12 [Example 43, 1′-[(2-methyl-1H-indol-3-yl)carbonyl]-3H-spiro[2-benzofuran-1,4′-piperidine]]
3 | 11 nM | Cc1c(C(=O)N2CCC3(CC2)OCc2ccccc23)c2ccccc2n1C(=O)c1ccccc1 [Example 44, 1′-[(1-benzoyl-2-methyl-1H-indol-3-yl)carbonyl]-3H-spiro[2-benzofuran-1,4′-piperidine]]
4 | 9.5 nM | Cc1c(C(=O)N2CCC3(CC2)OCc2ccccc23)c2ccccc2n1S(=O)(=O)c1ccccc1 [Example 45, 1′-{[2-methyl-1-(phenylsulfonyl)-1H-indol-3-yl]carbonyl}-3H-spiro[2-benzofuran-1,4′-piperidine]]
5 | 0.5 nM | Cc1c(C(=O)N2CCC3(CC2)OCc2ccccc23)c2ccccc2n1Cc1cccc(F)c1 [Example 47, 1′-{[1-(3-fluorobenzyl)-2-methyl-1H-indol-3-yl]carbonyl}-3H-spiro[2-benzofuran-1,4′-piperidine]]
6 | 2.6 nM | Cc1c(C(=O)N2CCC3(CC2)OCc2ccccc23)c2ccccc2n1Cc1ccccc1OC(F)(F)F [Example 48, 1′-({2-methyl-1-[2-(trifluoromethoxy)benzyl]-1H-indol-3-yl}carbonyl)-3H-spiro[2-benzofuran-1,4′-piperidine]]
7 | 10.6 nM | COC(=O)c1ccc(Cn2c(C)c(C(=O)N3CCC4(CC3)OCc3ccccc34)c3ccccc32)cc1 [Example 50, methyl 4-{[2-methyl-3-(1′H,3H-spiro[2-benzofuran-1,4′-piperidin]-1′-ylcarbonyl)-1H-indol-1-yl]methyl}benzoate]
8 | 2.1 nM | Cc1c(C(=O)N2CCC3(CC2)OCc2ccccc23)c2ccccc2n1Cc1cc(F)cc(F)c1 [Example 52]
9 | 1.7 nM | Cc1c(C(=O)N2CCC3(CC2)OCc2ccccc23)c2ccccc2n1Cc1ccccc1Cl [Example 53, 1′-{[1-(2-chlorobenzyl)-2-methyl-1H-indol-3-yl]carbonyl}-3H-spiro[2-benzofuran-1,4′-piperidine]]
10 | 2.5 nM | COc1ccccc1Cn1c(C)c(C(=O)N2CCC3(CC2)OCc2ccccc23)c2ccccc21 [Example 54, 1′-{[1-(2-methoxybenzyl)-2-methyl-1H-indol-3-yl]carbonyl}-3H-spiro[2-benzofuran-1,4′-piperidine]]
11 | 12.3 nM | COc1ccccc1-c1nc(Cn2c(C)c(C(=O)N3CCC4(CC3)OCc3ccccc34)c3ccccc32)c(C)o1 [Example 58, 1′-[(1-{[2-(2-methoxyphenyl)-5-methyl-1,3-oxazol-4-yl]methyl}-2-methyl-1H-indol-3-yl)carbonyl]-3H-spiro[2-benzofuran-1,4′-piperidine]]
12 | 4.3 nM | O=C(c1c[nH]c2cc(Cl)ccc12)N1CCC2(CC1)OCc1ccccc12 [Example 69, 1′-[(6-chloro-1H-indol-3-yl)carbonyl]-3H-spiro[2-benzofuran-1,4′-piperidine]]
13 | 5.6 nM | CN(C)CCn1cc(C(=O)N2CCC3(CC2)OCc2ccccc23)c2ccccc21 [Example 71, N,N-dimethyl-2-[3-(1′H,3H-spiro[2-benzofuran-1,4′-piperidin]-1′-ylcarbonyl)-1H-indol-1-yl]ethanamine]
14 | 2.9 nM | CCC(C)C(=O)c1[nH]c2ccccc2c1C(=O)N1CCC2(CC1)OCc1ccccc12 (stereo not shown) [Example 72, 2-methyl-1-[3-(1′H,3H-spiro[2-benzofuran-1,4′-piperidin]-1′-ylcarbonyl)-1H-indol-2-yl]butan-1-one]
15 | 1.7 nM | N#CCn1cc(C(=O)N2CCC3(CC2)OCc2ccccc23)c2ccc(Cl)cc21 [Example 76, [6-chloro-3-(1′H,3H-spiro[2-benzofuran-1,4′-piperidin]-1′-ylcarbonyl)-1H-indol-1-yl]acetonitrile]
16 | 7.4 nM | O=C(c1c[nH]c2cc(Cl)c(F)cc12)N1CCC2(CC1)COc1ccccc12 [Example 80, 1′-[(6-chloro-5-fluoro-1H-indol-3-yl)carbonyl]spiro[1-benzofuran-3,4′-piperidine]]
17 | 3.5 nM | O=C(Cn1cc(C(=O)N2CCC3(CC2)COc2ccccc23)c2ccc(Cl)cc21)N1CCCCC1 [Example 87, 1′-{[6-chloro-1-(2-oxo-2-piperidin-1-ylethyl)-1H-indol-3-yl]carbonyl}spiro[1-benzofuran-3,4′-piperidine]]
18 | 13.8 nM | O=C(c1cn(Cc2cc(F)cc(F)c2)c2cc(Cl)ccc12)N1CCC2(CC1)CNc1ccccc12 [Example 93]

Row | SMILES | Ki
19 | Cc1c(C(=O)N2CCC3(CC2)OCc2ccccc23)c2ccccc2n1CC1CCCCC1 [Example 46, 1′-{[1-(cyclohexylmethyl)-2-methyl-1H-indol-3-yl]carbonyl}-3H-spiro[2-benzofuran-1,4′-piperidine]] | 0.8 nM
20 | Cc1cc(C)cc(Cn2c(C)c(C(=O)N3CCC4(CC3)OCc3ccccc34)c3ccccc32)c1 [Example 49, 1′-{[1-(3,5-dimethylbenzyl)-2-methyl-1H-indol-3-yl]carbonyl}-3H-spiro[2-benzofuran-1,4′-piperidine]] | 2.4 nM
21 | Cc1c(C(=O)N2CCC3(CC2)OCc2ccccc23)c2ccccc2n1Cc1ccc(C#N)cc1 [Example 51, 4-{[2-methyl-3-(1′H,3H-spiro[2-benzofuran-1,4′-piperidin]-1′-ylcarbonyl)-1H-indol-1-yl]methyl}benzonitrile] | 5.9 nM
22 | COc1ccc(Cn2c(C)c(C(=O)N3CCC4(CC3)OCc3ccccc34)c3ccccc32)cc1 [Example 55, 1′-{[1-(4-methoxybenzyl)-2-methyl-1H-indol-3-yl]carbonyl}-3H-spiro[2-benzofuran-1,4′-piperidine]] | 7.9 nM
23 | O=C(c1cn(Cc2ccccc2)c2ccccc12)N1CCC2(CC1)OCc1ccccc12 [Example 68, 1′-[(1-benzyl-1H-indol-3-yl)carbonyl]-3H-spiro[2-benzofuran-1,4′-piperidine]] | 6.9 nM
24 | CN(C)CCn1cc(C(=O)N2CCC3(CC2)COc2ccccc23)c2ccc(Cl)cc21 [Example 81, 2-[6-chloro-3-(1′H-spiro[1-benzofuran-3,4′-piperidin]-1′-ylcarbonyl)-1H-indol-1-yl]-N,N-dimethylethanamine] | 5 nM
25 | O=C(c1cn(CCN2CCCC2)c2cc(Cl)ccc12)N1CCC2(CC1)COc1ccccc12 [Example 82, 1′-{[6-chloro-1-(2-pyrrolidin-1-ylethyl)-1H-indol-3-yl]carbonyl}spiro[1-benzofuran-3,4′-piperidine]] | 12.9 nM
26 | O=C(c1cn(CCN2CCOCC2)c2cc(Cl)ccc12)N1CCC2(CC1)COc1ccccc12 [Example 84, 1′-{[6-chloro-1-(2-morpholin-4-ylethyl)-1H-indol-3-yl]carbonyl}spiro[1-benzofuran-3,4′-piperidine]] | 3.6 nM
27 | CCN(CC)CCn1cc(C(=O)N2CCC3(CC2)COc2ccccc23)c2ccc(Cl)cc21 [Example 85, 2-[6-chloro-3-(1′H-spiro[1-benzofuran-3,4′-piperidin]-1′-ylcarbonyl)-1H-indol-1-yl]-N,N-diethylethanamine] | 10.2 nM
28 | O=C(c1cn(CCn2cccc2)c2cc(Cl)ccc12)N1CCC2(CC1)COc1ccccc12 [Example 86, 1′-({6-chloro-1-[2-(1H-pyrrol-1-yl)ethyl]-1H-indol-3-yl}carbonyl)spiro[1-benzofuran-3,4′-piperidine]] | 13.2 nM
